This experiment deals with B6C3F1 mice, B16 melanoma ip, median survival T/C. Put plainly: NCI In Vivo Anticancer Drug Screen. Data for tumor model B16 Melanoma (intraperitoneal) in B6C3F1 mice. To be noted: endpoint: median survival time, higher = longer survival. How it is done:
The antitumor activity of compounds was measured in mice bearing transplantable tumors. Survival or tumor size were measured and the results are expressed as the measurement made in the treated group (T) divided by the measurement made in the vehicle treated control group (C). The tumor model used in this assay is B16 Melanoma (intraperitoneal) in B6C3F1 mice

Setting [1] is: dose: 3.12 mg/kg/injection, schedule: Q01DX009 (ip), vehicle: Klucel (hydroxypropylcellulose) (HPC).
Where [2] appears, read: dose: 6.25 mg/kg/injection, schedule: Q01DX009 (ip), vehicle: Klucel (hydroxypropylcellulose) (HPC).
Setting [3] is: dose: 12.5 mg/kg/injection, schedule: Q01DX009 (ip), vehicle: Klucel (hydroxypropylcellulose) (HPC).
The mark [4] stands for this setting: dose: 25.0 mg/kg/injection, schedule: Q01DX009 (ip), vehicle: Klucel (hydroxypropylcellulose) (HPC).
[5] abbreviates: dose: 50.0 mg/kg/injection, schedule: Q01DX009 (ip), vehicle: Klucel (hydroxypropylcellulose) (HPC).
The mark [6] stands for this setting: dose: 100.0 mg/kg/injection, schedule: Q01DX009 (ip), vehicle: Klucel (hydroxypropylcellulose) (HPC).
[7] abbreviates: dose: 12.5 mg/kg/injection, schedule: Q01DX009 (ip), vehicle: saline with Tween-80.
Setting [8] is: dose: 25.0 mg/kg/injection, schedule: Q01DX009 (ip), vehicle: saline with Tween-80.
The mark [9] stands for this setting: dose: 50.0 mg/kg/injection, schedule: Q01DX009 (ip), vehicle: saline with Tween-80.
The mark [10] stands for this setting: dose: 50.0 mg/kg/injection, schedule: Q01DX009 (ip), vehicle: saline.
The mark [11] stands for this setting: dose: 100.0 mg/kg/injection, schedule: Q01DX009 (ip), vehicle: saline with Tween-80.
Setting [12] is: dose: 100.0 mg/kg/injection, schedule: Q01DX009 (ip), vehicle: saline.
The mark [13] stands for this setting: dose: 200.0 mg/kg/injection, schedule: Q01DX009 (ip), vehicle: saline with Tween-80.
Where [14] appears, read: dose: 400.0 mg/kg/injection, schedule: Q01DX009 (ip), vehicle: saline.
The mark [15] stands for this setting: dose: 12.5 mg/kg/injection, schedule: Q01DX009 (ip), vehicle: saline.
Where [16] appears, read: dose: 25.0 mg/kg/injection, schedule: Q01DX009 (ip), vehicle: saline.
The mark [17] stands for this setting: dose: 400.0 mg/kg/injection, schedule: Q01DX009 (ip), vehicle: Klucel (hydroxypropylcellulose) (HPC).

“And” between values parts separate entries of the source, which are not always exact repeats. Equal entries are not always repeated. Toxic doses and inconclusive results are not listed.

Consider `O=C(CC(=O)C(F)(F)F)c1csc2ccccc12`, for which the T/C under setting [1] is 112 % of control; the T/C under setting [2] was 89 % of control; the T/C under setting [3] was 103 % of control; the T/C under setting [4] was 113 % of control; the T/C under setting [5] was 100 % of control; the T/C under setting [6] is 87 % of control.

On to `CC(=Nc1ccccc1)C1=C(O)C(Cc2ccccc2)NC1=O` (stereo not drawn), for which the T/C is 113 % of control (dose: 3.13 mg/kg/injection, schedule: Q01DX009 (ip), vehicle: saline with Tween-80); 121 % of control (dose: 6.25 mg/kg/injection, schedule: Q01DX009 (ip), vehicle: saline with Tween-80); 115 % of control and 103 % of control under setting [7]; 119 % of control and 103 % of control under setting [8]; 113 % of control under setting [9].

As to `ClC1(Cl)Cc2ccccc21`, the T/C was 105 % of control (dose: 18.0 mg/kg/injection, schedule: Q01DX009 (ip), vehicle: saline with Tween-80); 122 % of control under setting [8]; 107 % of control (dose: 30.0 mg/kg/injection, schedule: Q01DX009 (ip), vehicle: saline with Tween-80); 99 % of control under setting [9]; 103 % of control (dose: 83.33 mg/kg/injection, schedule: Q01DX009 (ip), vehicle: saline with Tween-80); 100 % of control (dose: 138.88 mg/kg/injection, schedule: Q01DX009 (ip), vehicle: saline with Tween-80).

Take `NC(CS)C(=O)O` (stereo not drawn): the T/C is 93 % of control and 104 % of control under setting [10]; 107 % of control under setting [11]; 93 % of control and 103 % of control under setting [12]; 109 % of control under setting [13]; 93 % of control (dose: 200.0 mg/kg/injection, schedule: Q01DX009 (ip), vehicle: saline); 107 % of control (dose: 400.0 mg/kg/injection, schedule: Q01DX009 (ip), vehicle: saline with Tween-80). For the same molecule, the T/C was 116 % of control and 92 % of control under setting [14]; 100 % of control (dose: 800.0 mg/kg/injection, schedule: Q01DX009 (ip), vehicle: saline with Tween-80).

As for `NC(CCC(=O)NC(CS)C(=O)NCC(=O)O)C(=O)O` (stereo not drawn), the T/C under setting [15] was 94 % of control; the T/C under setting [16] was 113 % of control and 86 % of control and 101 % of control; the T/C under setting [14] is 91 % of control and 104 % of control and 107 % of control.

As for `[CH3][Sn]([CH3])([Cl])[S]CCN`, the T/C by setting is: (dose: 3.12 mg/kg/injection, schedule: Q01DX009 (ip), vehicle: saline) 109 % of control and 102 % of control; (dose: 6.25 mg/kg/injection, schedule: Q01DX009 (ip), vehicle: saline) 95 % of control and 96 % of control; under setting [15], 96 % of control and 102 % of control; under setting [16], 100 % of control; under setting [10], 97 % of control.

In the case of `NNC(=S)N/N=C/c1ccc([N+](=O)[O-])s1`, the T/C is 105 % of control (dose: 0.78 mg/kg/injection, schedule: Q01DX009 (ip), vehicle: Klucel (hydroxypropylcellulose) (HPC)); 99 % of control (dose: 1.56 mg/kg/injection, schedule: Q01DX009 (ip), vehicle: Klucel (hydroxypropylcellulose) (HPC)); 104 % of control under setting [1]; 104 % of control under setting [2].

Turning to `Cc1ccc(NCC2(/N=C/c3ccccc3)OC(CO)C(O)C2O)cc1` (stereo not drawn), the T/C under setting [17] was 161 % of control.

As for `CC1(CO)C(O)CCC2(C)C1CCC1CC3CC12CCC3(O)CO` (stereo not drawn), the T/C runs as follows: (dose: 10.0 mg/kg/injection, schedule: Q03HX027 (ip), vehicle: saline with Tween-80) 118 % of control; under setting [7], 116 % of control and 117 % of control; under setting [8], 119 % of control and 122 % of control; (dose: 30.0 mg/kg/injection, schedule: Q01DX005 (iv), vehicle: Klucel (hydroxypropylcellulose) (HPC)) 103 % of control; (dose: 40.0 mg/kg/injection, schedule: Q03HX027 (ip), vehicle: saline with Tween-80) 187 % of control and 202 % of control; (dose: 50.0 mg/kg/injection, schedule: Q01DX009 (ip), vehicle: distilled water + Tween-80) 179 % of control. Further, the T/C reads like this: under setting [9], 159 % of control; under setting [10], 109 % of control; (dose: 60.0 mg/kg/injection, schedule: Q01DX005 (iv), vehicle: Klucel (hydroxypropylcellulose) (HPC)) 95 % of control; (dose: 60.0 mg/kg/injection, schedule: Q01DX005 (oral), vehicle: Klucel (hydroxypropylcellulose) (HPC)) 106 % of control; (dose: 75.0 mg/kg/injection, schedule: Q01DX009 (ip), vehicle: saline) 113 % of control; (dose: 80.0 mg/kg/injection, schedule: Q03HX027 (ip), vehicle: saline with Tween-80) 235 % of control. The T/C was 166 % of control (dose: 100.0 mg/kg/injection, schedule: Q01DX009 (ip), vehicle: distilled water + Tween-80); 162 % of control and 173 % of control and 187 % of control under setting [11]; 119 % of control under setting [12]; 150 % of control (dose: 120.0 mg/kg/injection, schedule: Q01DX005 (ip), vehicle: Klucel (hydroxypropylcellulose) (HPC)); 104 % of control (dose: 120.0 mg/kg/injection, schedule: Q01DX005 (iv), vehicle: Klucel (hydroxypropylcellulose) (HPC)); 99 % of control (dose: 120.0 mg/kg/injection, schedule: Q01DX005 (oral), vehicle: Klucel (hydroxypropylcellulose) (HPC)). Besides, the T/C was 161 % of control (dose: 150.0 mg/kg/injection, schedule: Q01DX009 (ip), vehicle: saline); 201 % of control (dose: 200.0 mg/kg/injection, schedule: Q01DX009 (ip), vehicle: distilled water + Tween-80); 236 % of control under setting [13]; 184 % of control (dose: 240.0 mg/kg/injection, schedule: Q01DX005 (ip), vehicle: Klucel (hydroxypropylcellulose) (HPC)); 104 % of control (dose: 240.0 mg/kg/injection, schedule: Q01DX005 (oral), vehicle: Klucel (hydroxypropylcellulose) (HPC)); 100 % of control (dose: 480.0 mg/kg/injection, schedule: Q01DX005 (oral), vehicle: Klucel (hydroxypropylcellulose) (HPC)).

`CC(C)(C)OC(=O)NC(Cc1ccc(O)cc1)C(=O)O` (stereo not drawn): the T/C by setting is: under setting [6], 108 % of control; (dose: 200.0 mg/kg/injection, schedule: Q01DX009 (ip), vehicle: Klucel (hydroxypropylcellulose) (HPC)) 103 % of control; under setting [17], 97 % of control.

Turning to `COc1cc(C(=O)c2cc3c(cc2C)OCO3)cc(OC)c1OC`, the T/C is, setting by setting: under setting [2], 94 % of control; under setting [3], 100 % of control; under setting [4], 108 % of control; under setting [5], 117 % of control and 106 % of control.

For `O=S(=O)(O)C1=CC(=N\Cl)/C=CC/1=N/Cl`, the T/C by setting is: (dose: 50.0 mg/kg/injection, schedule: Q01DX009 (ip), vehicle: saline + Tween-80 + alcohol) 100 % of control; (dose: 100.0 mg/kg/injection, schedule: Q01DX009 (ip), vehicle: saline + Tween-80 + alcohol) 100 % of control.

In the case of `CN(C)CCCN1c2ccccc2Sc2ccc(Cl)cc21`, the T/C is 92 % of control (dose: 4.68 mg/kg/injection, schedule: Q01DX009 (ip), vehicle: saline); 104 % of control (dose: 9.37 mg/kg/injection, schedule: Q01DX009 (ip), vehicle: saline); 105 % of control (dose: 18.75 mg/kg/injection, schedule: Q01DX009 (ip), vehicle: saline).

As to `O=C(O)C(CSC(c1ccccc1)(c1ccccc1)c1ccccc1)N=Cc1cccs1` (stereo not drawn), the T/C was 112 % of control (dose: 12.5 mg/kg/injection, schedule: Q01DX009 (ip), vehicle: suspension in saline) and 118 % of control (dose: 25.0 mg/kg/injection, schedule: Q01DX009 (ip), vehicle: suspension in saline).

For `Oc1ccc(CCl)c2cccnc12`, the T/C was 102 % of control (dose: 12.0 mg/kg/injection, schedule: Q01DX009 (ip), vehicle: saline) and 100 % of control under setting [15].

Source of the values: PubChem BioAssay AID200 (DTP/NCI, 2004).
